Assays:
A375 (melanoma) = test: SRB cytotoxicity assay, A375; assay type: cell-based, human; settings: Homo sapiens, A-375, 72 h, 72 h of treatment, mean ± standard mean error
From the text: (§1) The cell lines were obtained from Department of Oncology (Martin-Luther-University Halle Wittenberg; they were bought from ATCC; A 375 (CRL-1619), HT29 (HTB-38), MCF7 (HTM-22), A2780 (HTP-77), FaDu (HTP-43), NIH 3T3 (CRL-1658), HEK-293 (CRL-1573)). Cultures were maintained as monolayers in RPMI 1640 medium with L-glutamine (Capricorn Scientific GmbH, Ebsdorfergrund, Germany) supplemented with 10% heat inactivated fetal bovine serum (Sigma-Aldrich Chemie GmbH, Steinheim, Germany) and penicillin/streptomycin (1%, Capricorn Scientific GmbH, Ebsdorfergrund, Germany) at 37 °C in a humidified atmosphere with 5% CO2. The cytotoxicity of the compounds was evaluated using the sulforhodamine-B (Kiton-Red S, ABCR) micro culture colorimetric assay using confluent cells in 96-well plates with the seeding of the cells on day 0 applying appropriate cell densities to prevent confluence of the cells during the period of the experiment. On day 1, the cells were treated with six different concentrations (1, 3, 7, 12, 20, and 30 μM); thereby, the final concentration of DMSO was always <0.5%, generally regarded as non-toxic to the cells. On day 4, the supernatant medium was discarded; the cells were fixed with 10% trichloroacetic acid. After another day at 4 °C, the cells were washed in a strip washer and dyed with the SRB solution (100 μL, 0.4% in 1% acetic acid) for about 20 min to be followed by washing of the plates (four times, 1% acetic acid) and air-drying overnight. Furthermore, tris base solution (200 μL, 10 mM) was added to each well and absorbance was measured at λ = 570 nm employing a reader (96 wells, Tecan Spectra, Crailsheim, Germany). The EC50 values were averaged from three independent experiments performed each in triplicate calculated from semi logarithmic dose response curves applying a non-linear four-parameter Hills-slope equation (GraphPad Prism5; variables top and bottom were set to 100 and 0, respectively).

[1] = system: HT29 (colon adenocarcinoma); test: SRB cytotoxicity assay, HT29; assay type: cell-based, human; settings: Homo sapiens, HT-29, 72 h, 72 h of treatment, mean ± standard mean error
From the text: as §1

[2] = system: MCF-7 (breast adenocarcinoma); test: SRB cytotoxicity assay, MCF-7; assay type: cell-based; settings: Homo sapiens, MCF7, 72 h of treatment, mean ± standard mean error
From the text: as §1

[3] = system: A2780 (ovarian carcinoma); test: SRB cytotoxicity assay, A2780; assay type: cell-based; settings: Homo sapiens, 72 h of treatment, mean ± standard mean error
From the text: as §1

[4] = system: FaDu (hypopharyngeal carcinoma); test: SRB cytotoxicity assay, FaDu; assay type: cell-based; settings: Homo sapiens, 72 h of treatment, mean ± standard mean error
From the text: as §1

[5] = system: NIH 3T3 (fibroblasts), non-malignant; test: SRB cytotoxicity assay, NIH 3T3; assay type: cell-based; settings: Mus musculus, NIH3T3, 72 h, 72 h of treatment, mean ± standard mean error
From the text: as §1

[6] = system: human tumor cell lines (A375, HT29, MCF-7, A2780, FaDu); test: SRB cytotoxicity assay, statements across the cell line panel; assay type: cell-based; settings: span over all cell lines tested, cut-off of the assay 30 µM
From the text: as §1, with “On day 1, the cells were treated with six different concentrations (1, 3, 7, 12, 20, and 30 μM); thereby, the final concentration of DMSO was always <0.5%, generally regarded as non-toxic to the cells. On day 4, the supernatant medium was discarded; the cells were fixed with 10% trichloroacetic acid. After another day at 4 °C, the cells were washed in a strip washer and dyed with the SRB solution (100 μL, 0.4% in 1% acetic acid) for about 20 min to be followed by washing of the plates (four times, 1% acetic acid) and air-drying overnight.” left out

HeLa (cervical cancer) = test: SRB cytotoxicity assay, HeLa; assay type: cell-based; settings: Homo sapiens, 72 h of treatment, mean ± standard mean error
[7] = system: HEK293 (human embryonic kidney), non-malignant; test: SRB cytotoxicity assay, HEK293; assay type: cell-based; settings: 72 h of treatment, mean ± standard mean error
From the text: as §1

For `CC(=O)O[C@H]1CC[C@@]2(C)C(CC[C@]3(C)C2CCC2C4[C@H](C(C)=O)CC[C@]4(C(=O)O)CC[C@]23C)C1(C)C` (stereo partly drawn) [compound 4, 3β-Acetyloxy-20-oxo-30-norlupan-28-oic Acid], the EC50 (A375 (melanoma)) was over 30000 nM, the EC50 [1] was over 30000 nM and the EC50 [2] was over 30000 nM. It also gave an EC50 [3] of over 30000 nM, an EC50 [4] of over 30000 nM and an EC50 [5] of over 30000 nM. The “EC50 values across the cell lines” value [6] was “not cytotoxic at all within the limits of the assay”.

`CC(=O)O[C@H]1CC[C@@]2(C)C(CC[C@]3(C)C2CC=C2C4CC(C)(C)CC[C@]4(C(=O)N4CCCN(C(=O)c5ccccc5C5=c6cc7c8c(c6Oc6c5cc5c9c6CCCN9CCC5)CCC[N+]=8CCC7)CC4)CC[C@]23C)C1(C)C` (stereo partly shown) [compound 26] was tested, and the EC50 (A375 (melanoma)) was 70 ± 10 nM, the EC50 [1] was 130 ± 30 nM and the EC50 [2] was 120 ± 30 nM. For the same compound, the EC50 [3] was 70 ± 30 nM, the EC50 [5] was 260 ± 50 nM and the EC50 (HeLa (cervical cancer)) was 100 ± 50 nM. The EC50 [7] was 50 ± 10 nM.

Work on `CC(=O)O[C@H]1CC[C@@]2(C)C(CC[C@]3(C)C2CC=C2C4[C@@H](C)[C@H](C)CC[C@]4(C(=O)N4CCCN(C(=O)c5ccccc5C5=c6cc7c8c(c6Oc6c5cc5c9c6CCCN9CCC5)CCC[N+]=8CCC7)CC4)CC[C@]23C)C1(C)C` (stereo partly shown) [compound 27] yielded an EC50 (A375 (melanoma)) of 60 ± 40 nM, an EC50 [1] of 80 ± 20 nM and an EC50 [2] of 80 ± 30 nM. For the same compound, the EC50 [3] was 50 ± 20 nM, the EC50 [5] was 240 ± 30 nM and the EC50 (HeLa (cervical cancer)) was 90 ± 60 nM. For the same compound, the EC50 [7] was 40 ± 10 nM.

In the case of `CC(=O)O[C@H]1CC[C@@]2(C)C(CC[C@]3(C)C2CCC2C4[C@H](C(C)=O)CC[C@]4(C(=O)N4CCCN(C(=O)c5ccccc5C5=c6cc7c8c(c6Oc6c5cc5c9c6CCCN9CCC5)CCC[N+]=8CCC7)CC4)CC[C@]23C)C1(C)C` (stereo partly shown) [compound 28], the EC50 (A375 (melanoma)) is reported as 200 ± 30 nM, the EC50 [1] is reported as 350 ± 50 nM and the EC50 [2] is reported as 200 ± 50 nM. It also gave an EC50 [3] of 170 ± 40 nM, an EC50 [5] of 390 ± 50 nM and an EC50 (HeLa (cervical cancer)) of 310 ± 150 nM. For the same compound, the EC50 [7] was 120 ± 30 nM.

From article PMC9000871, “Rhodamine 101 Conjugates of Triterpenoic Amides Are of Comparable Cytotoxicity as Their Rhodamine B Analogs” (Molecules, 2022)
